According to PubChem BioAssay (NCI):
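Five compound concentrations were applied to cells in 96-well plates for 48 hours; endpoints were derived by simple linear interpolation of the resulting dose-response curve. TGI marks complete inhibition of growth.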

Assays:
Assay in all cases: NCI-60 cell line screen, 48 h
[1] = test system: T-47D breast
[2] = test system: MALME-3M melanoma
[3] = test system: UACC-62 melanoma
[4] = test system: HCT-116 colon
[5] = test system: MDA-N
[6] = test system: NCI/ADR-RES ovarian
[7] = test system: UACC-257 melanoma
[8] = test system: CCRF-CEM leukemia
[9] = test system: CAKI-1 renal
[10] = test system: SR leukemia
[11] = test system: OVCAR-4 ovarian
[12] = test system: SK-MEL-5 melanoma
[13] = test system: K-562 leukemia
[14] = test system: NCI-H460 lung
[15] = test system: SNB-75 CNS
[16] = test system: MDA-MB-435
[17] = test system: SNB-19 CNS
[18] = test system: OVCAR-3 ovarian
[19] = test system: A498 renal

SMILES | TGI [1] | TGI [2] | TGI [3] | TGI [4] | TGI [5] | TGI [6] | TGI [7] | TGI [8] | TGI [9] | TGI [10] | TGI [11] | TGI [12] | TGI [13] | TGI [14] | TGI [15] | TGI [16] | TGI [17] | TGI [18] | TGI [19]
C=CCN(c1cc(OCc2ccccc2)c2c(c1)c(C)cn2S(=O)(=O)c1ccccc1)S(C)(=O)=O | > 100 µM | > 100 µM | > 100 µM | > 100 µM | > 100 µM | > 100 µM | > 100 µM | > 100 µM | > 100 µM | > 100 µM | > 100 µM | > 100 µM | > 100 µM | > 100 µM | > 100 µM | > 100 µM | > 100 µM | > 100 µM | 
COc1cc(/C=C2/C(=O)N=C(NC(C)=O)N2C)ccc1OC(C)=O | > 100 µM |  | > 100 µM | > 100 µM | > 100 µM | > 100 µM | > 100 µM |  | > 100 µM |  | > 100 µM | > 100 µM |  | > 100 µM | > 100 µM | > 100 µM | > 100 µM | > 100 µM | 
Cc1cc(S(=O)(=O)Nc2nc(N)nc(N(C)C)n2)c(SC(C(=O)O)c2ccccc2)cc1Cl (stereo unspecified) | > 10 µM | > 10 µM |  | > 10 µM | > 10 µM | > 10 µM | > 10 µM | > 10 µM | > 10 µM | > 10 µM | > 10 µM | > 10 µM | > 10 µM | > 10 µM | > 10 µM |  | > 10 µM | > 10 µM | > 10 µM
Cc1ccc(-c2n[nH]c(=O)n2N2C(=O)C=CC2=O)cc1 | > 100 µM | > 100 µM | > 100 µM | > 100 µM |  | > 100 µM | > 100 µM | > 100 µM | > 100 µM | > 100 µM | > 100 µM | > 100 µM | > 100 µM | > 100 µM |  | > 100 µM |  | > 100 µM | > 100 µM
CC(C(=O)N1C(=O)N(C(=O)[C@H](C)C(O)c2ccccc2)[C@H](c2ccccc2)[C@H]1c1ccccc1)[C@@H](O)c1ccccc1 (stereo partly specified) | > 100 µM |  | 51.1 µM | > 100 µM | 60.7 µM |  | 84.4 µM |  | 72.4 µM | > 100 µM | > 100 µM | 28.1 µM | > 100 µM | 78.1 µM | > 100 µM | 54.3 µM | > 100 µM |  | > 100 µM
O=C1NCC2(CCNCC2)N1 | > 100 µM | > 100 µM | > 100 µM | > 100 µM |  | > 100 µM | > 100 µM | > 100 µM |  | > 100 µM | > 100 µM | > 100 µM |  | > 100 µM | > 100 µM | > 100 µM | > 100 µM |  | > 100 µM
O=C(Nc1ccc(N2C(=O)CSC2c2cccs2)cc1)c1ccc(N2C(=O)CSC2c2cccs2)cc1 (stereo unspecified) | > 100 µM | > 100 µM | > 100 µM | > 100 µM | > 100 µM | > 100 µM | > 100 µM | > 100 µM | > 100 µM |  | > 100 µM | > 100 µM | > 100 µM | > 100 µM | > 100 µM | > 100 µM | > 100 µM | > 100 µM | 
N#Cc1nc(C2SCCCS2)oc1N |  |  | > 100 µM | > 100 µM | > 100 µM |  | > 100 µM | > 100 µM | > 100 µM | > 100 µM | > 100 µM | > 100 µM | > 100 µM |  | 0.843 µM | > 100 µM | > 100 µM |  | > 100 µM
O=C1C(Cl)C(c2cccc(Br)c2)N1c1c(O)c(Cl)cc(Br)c1Cl (stereo unspecified) | 44.6 µM | 55.3 µM | 33.8 µM | 27.6 µM | 53.3 µM | 89.8 µM | 43.9 µM | 41.3 µM | 81.1 µM | 56.3 µM | 24.7 µM | 27.2 µM | 37.1 µM | 27.1 µM |  | 31.1 µM | 11.5 µM | 36.1 µM | 
CC(=O)NC(CCCOC(C)=O)C(=O)NC(CCCOC(C)=O)C(=O)NC(CCCOC(C)=O)C(=O)NC(Cc1ccc([N+](=O)[O-])cc1)C(=O)NCC(=O)OCc1ccccc1 (stereo unspecified) | > 100 µM | > 100 µM | > 100 µM | > 100 µM |  | > 100 µM | > 100 µM | > 100 µM | > 100 µM | > 100 µM | > 100 µM | > 100 µM | > 100 µM | > 100 µM | > 100 µM | > 100 µM | > 100 µM | > 100 µM | > 100 µM
Nc1ccc(-c2nc3ccc(Cc4ccc5nc(-c6ccc(N)cc6)oc5c4)cc3o2)cc1 |  | > 100 µM | > 100 µM | > 100 µM | > 100 µM | > 100 µM | > 100 µM | > 100 µM | > 100 µM | 41.2 µM | > 100 µM |  | > 100 µM | > 100 µM |  | > 100 µM | > 100 µM |  | > 100 µM
